Results published in patent US10030020B2, “Spirocycle compounds and methods of making and using same” (Abide Therapeutics, Inc., priority 2016, dated 2018).
pIC50: −log10 of the molar value.

Assays:
Assay type in all cases: biochemical
MAGL = MAGL (Mus musculus (Mouse), UniProt O35678); assay: In vitro competitive activity-based protein profiling (mouse brain membrane fraction or cell lysates), MAGL band; details: mouse proteome; for inhibition at 1 µM: read-out: MAGL % Inh 1 μM (mouse); for pIC50: competitive ABPP
Method: In Vitro Competitive Activity-Based Protein Profiling.
Proteomes (mouse brain membrane fraction or cell lysates) (50 μL, 1.0 mg/mL total protein concentration) were preincubated with varying concentrations of inhibitors at 37° C. After 30 min, FP—Rh (1.0 μL, 50 μM in DMSO) was added and the mixture was incubated for another 30 min at 37° C. Reactions were quenched with SDS loading buffer (50 μL-4×) and run on SDS-PAGE.

ABHD6 = ABHD6 (Mus musculus (Mouse), UniProt Q8R2Y0); assay: In vitro competitive activity-based protein profiling (mouse brain membrane fraction or cell lysates), ABHD6 band; details: mouse proteome; for inhibition at 1 µM: read-out: ABHD6 % Inh 1 μM (mouse); for pIC50: competitive ABPP
How it was run: (§1)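 Residual hydrolase activity was measured as gel band fluorescence after FP-Rh labelling (30 min, 37° C) of proteomes pretreated 30 min at 37° C with inhibitor.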

FAAH = FAAH (Mus musculus (Mouse), UniProt O08914); assay: In vitro competitive activity-based protein profiling (mouse brain membrane fraction or cell lysates), FAAH band; details: mouse proteome; for inhibition at 1 µM: read-out: FAAH % Inh 1 μM (mouse); for pIC50: competitive ABPP
How it was run: as §1

MAGL, sequence (O35678 whole entry): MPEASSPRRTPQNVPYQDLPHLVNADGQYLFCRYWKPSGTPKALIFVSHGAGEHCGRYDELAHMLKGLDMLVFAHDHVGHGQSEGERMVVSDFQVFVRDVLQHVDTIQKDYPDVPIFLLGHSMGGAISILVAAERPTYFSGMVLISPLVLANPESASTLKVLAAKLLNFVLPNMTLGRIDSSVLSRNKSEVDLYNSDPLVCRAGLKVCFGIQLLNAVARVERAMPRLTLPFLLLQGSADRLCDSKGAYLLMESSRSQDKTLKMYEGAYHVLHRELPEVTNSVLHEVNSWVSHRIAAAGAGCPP
ABHD6, sequence (Q8R2Y0 whole entry): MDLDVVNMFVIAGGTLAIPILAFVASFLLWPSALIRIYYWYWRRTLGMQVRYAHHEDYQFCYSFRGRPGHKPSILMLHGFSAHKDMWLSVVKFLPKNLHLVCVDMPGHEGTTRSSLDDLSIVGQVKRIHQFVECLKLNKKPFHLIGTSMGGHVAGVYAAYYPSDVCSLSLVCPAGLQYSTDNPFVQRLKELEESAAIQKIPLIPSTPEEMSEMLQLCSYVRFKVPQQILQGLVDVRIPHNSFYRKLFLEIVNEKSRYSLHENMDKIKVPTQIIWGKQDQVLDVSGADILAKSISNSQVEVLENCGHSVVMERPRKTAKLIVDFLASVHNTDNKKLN
FAAH, sequence (O08914 whole entry): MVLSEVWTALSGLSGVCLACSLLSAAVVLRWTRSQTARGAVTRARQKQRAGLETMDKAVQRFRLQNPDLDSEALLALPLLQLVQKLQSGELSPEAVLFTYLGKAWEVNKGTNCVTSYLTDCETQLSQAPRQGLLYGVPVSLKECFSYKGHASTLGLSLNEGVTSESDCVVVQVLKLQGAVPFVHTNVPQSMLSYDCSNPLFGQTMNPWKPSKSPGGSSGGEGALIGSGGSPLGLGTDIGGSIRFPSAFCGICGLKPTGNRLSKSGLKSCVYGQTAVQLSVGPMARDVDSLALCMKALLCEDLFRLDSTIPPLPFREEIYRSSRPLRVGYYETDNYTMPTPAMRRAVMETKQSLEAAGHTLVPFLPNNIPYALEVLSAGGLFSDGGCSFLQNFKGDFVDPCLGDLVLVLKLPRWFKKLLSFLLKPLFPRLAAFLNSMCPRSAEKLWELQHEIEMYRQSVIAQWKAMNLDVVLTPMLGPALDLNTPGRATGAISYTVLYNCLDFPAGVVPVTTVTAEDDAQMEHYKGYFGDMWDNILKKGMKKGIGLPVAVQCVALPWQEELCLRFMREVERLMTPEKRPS

Row | Structure (SMILES) | inhibition at 1 µM (MAGL) [%] | pIC50 (MAGL) | inhibition at 1 µM (ABHD6) [%] | pIC50 (ABHD6) | inhibition at 1 µM (FAAH) [%] | pIC50 (FAAH)
1 | O=C(OC(C(F)(F)F)C(F)(F)F)N1CCC2(CCN(Cc3ccc4c(c3)COC4)C2)CC1 [Example 153, 1,1,1,3,3,3-Hexafluoropropan-2-yl 2-((1,3-dihydroisobenzofuran-5-yl)methyl)-2,8-diazaspiro[4.5]decane-8-carboxylate] | > 75 | 6.00 to 7.00 | ≥ 75 | > 7.00 | < 25 | < 6.00
2 | O=C(OC(C(F)(F)F)C(F)(F)F)N1CCC2(CCN(Cc3ccc(Cl)c(N4CCOCC4)c3)C2)CC1 [Example 154, 1,1,1,3,3,3-Hexafluoropropan-2-yl 2-(4-chloro-3-morpholinobenzyl)-2,8-diazaspiro[4.5]decane-8-carboxylate] | > 75 | > 7.00 | ≥ 75 | 6.00 to 7.00 | < 25 | < 6.00
3 | O=C(OC(C(F)(F)F)C(F)(F)F)N1CCC2(CCN(Cc3ccc(Cl)c(N4CCCC4)c3)C2)CC1 [Example 155, 1,1,1,3,3,3-Hexafluoropropan-2-yl 2-(4-chloro-3-(pyrrolidin-1-yl)benzyl)-2,8-diazaspiro[4.5]decane-8-carboxylate] | > 75 | > 7.00 | ≥ 75 | 6.00 to 7.00 | < 25 | < 6.00
4 | O=C(OC(C(F)(F)F)C(F)(F)F)N1CCC2(CCN(Cc3ccc(C(F)(F)F)c(N4CCOCC4)c3)C2)CC1 [Example 156, 1,1,1,3,3,3-Hexafluoropropan-2-yl 2-(3-morpholino-4-(trifluoromethyl)benzyl)-2,8-diazaspiro[4.5]decane-8-carboxylate] | > 75 | > 7.00 | ≥ 75 | 6.00 to 7.00 | < 25 | < 6.00
5 | CCN1CCCc2cccc(CN3CCCC34CCN(C(=O)OC(C(F)(F)F)C(F)(F)F)CC4)c21 [Example 158, 1,1,1,3,3,3-Hexafluoropropan-2-yl 1-((1-ethyl-1,2,3,4-tetrahydroquinolin-8-yl)methyl)-1,8-diazaspiro[4.5]decane-8-carboxylate] | > 75 | 6.00 to 7.00 | < 25 | < 6.00 | < 25 | < 6.00
6 | CCN1CCc2cccc(CN3CCC4(CCN(C(=O)OC(C(F)(F)F)C(F)(F)F)CC4)C3)c2C1 [Example 159, 1,1,1,3,3,3-Hexafluoropropan-2-yl 2-((2-ethyl-1,2,3,4-tetrahydroisoquinolin-8-yl)methyl)-2,8-diazaspiro[4.5]decane-8-carboxylate] | > 75 | > 7.00 | ≥ 75 | < 6.00 | < 25 | < 6.00
7 | CC(=O)N1CCc2cccc(CN3CCC4(CCN(C(=O)OC(C(F)(F)F)C(F)(F)F)CC4)C3)c2C1 [Example 160, 1,1,1,3,3,3-Hexafluoropropan-2-yl 2-((2-acetyl-1,2,3,4-tetrahydroisoquinolin-8-yl)methyl)-2,8-diazaspiro[4.5]decane-8-carboxylate] | > 75 | > 7.00 | ≥ 75 | > 7.00 | < 25 | < 6.00
8 | CS(=O)(=O)N1CCc2cccc(CN3CCC4(CCN(C(=O)OC(C(F)(F)F)C(F)(F)F)CC4)C3)c2C1 [Example 161, 1,1,1,3,3,3-hexafluoropropan-2-yl 2-((2-(methylsulfonyl)-1,2,3,4-tetrahydroisoquinolin-8-yl)methyl)-2,8-diazaspiro[4.5]decane-8-carboxylate] | > 75 | > 7.00 | ≥ 75 | > 7.00 | < 25 | < 6.00
9 | CC(C)N1CCc2cccc(CN3CCC4(CCN(C(=O)OC(C(F)(F)F)C(F)(F)F)CC4)C3)c2C1 [Example 162, 1,1,1,3,3,3-Hexafluoropropan-2-yl 2-((2-isopropyl-1,2,3,4-tetrahydroisoquinolin-8-yl)methyl)-2,8-diazaspiro[4.5]decane-8-carboxylate] | > 75 | > 7.00 | ≥ 75 | 6.00 to 7.00 | < 25 | < 6.00
10 | O=C(OC(C(F)(F)F)C(F)(F)F)N1CCC2(CCN(Cc3cccc4c3CN(C3CC3)CC4)C2)CC1 [Example 163, 1,1,1,3,3,3-Hexafluoropropan-2-yl 2-((2-cyclopropyl-1,2,3,4-tetrahydroisoquinolin-8-yl)methyl)-2,8-diazaspiro[4.5]decane-8-carboxylate] | > 75 | > 7.00 | 25 to 75 | 6.00 to 7.00 | < 25 | < 6.00
11 | CC(C)CN1CCc2cccc(CN3CCC4(CCN(C(=O)OC(C(F)(F)F)C(F)(F)F)CC4)C3)c2C1 [Example 164, 1,1,1,3,3,3-Hexafluoropropan-2-yl 2-((2-isobutyl-1,2,3,4-tetrahydroisoquinolin-8-yl)methyl)-2,8-diazaspiro[4.5]decane-8-carboxylate] | > 75 | > 7.00 | ≥ 75 | 6.00 to 7.00 | < 25 | < 6.00
12 | CN1CCC(Oc2cc(C(F)(F)F)ccc2CN2CCCC23CCN(C(=O)OC(C(F)(F)F)C(F)(F)F)CC3)CC1 [Example 165, 1,1,1,3,3,3-Hexafluoropropan-2-yl 1-(2-(1-methylpiperidin-4-yloxy)-4-(trifluoromethyl)benzyl)-1,8-diazaspiro[4.5]decane-8-carboxylate] | > 75 | > 7.00 | 25 to 75 | < 6.00 | < 25 | < 6.00
13 | O=C(COc1cc(C(F)(F)F)ccc1CN1CCCC12CCN(C(=O)OC(C(F)(F)F)C(F)(F)F)CC2)N1CCCC1 [Example 167, 1,1,1,3,3,3-Hexafluoropropan-2-yl 1-(2-(2-oxo-2-(pyrrolidin-1-yl)ethoxy)-4-(trifluoromethyl)benzyl)-1,8-diazaspiro[4.5]decane-8-carboxylate] | > 75 | > 7.00 | 25 to 75 | < 6.00 | < 25 | < 6.00
14 | O=C(OC(C(F)(F)F)C(F)(F)F)N1CCC2(CCCN2Cc2ccc(C(F)(F)F)cc2OC2CCOCC2)CC1 [Example 169, 1,1,1,3,3,3-Hexafluoropropan-2-yl 1-(2-(tetrahydro-2H-pyran-4-yloxy)-4-(trifluoromethyl)benzyl)-1,8-diazaspiro[4.5]decane-8-carboxylate] | > 75 | > 7.00 | 25 to 75 | < 6.00 | < 25 | < 6.00
15 | O=C(OC(C(F)(F)F)C(F)(F)F)N1CCC2(CCCN2Cc2ccc(C(F)(F)F)cc2Oc2nc3ccccc3s2)CC1 [Example 171, 1,1,1,3,3,3-Hexafluoropropan-2-yl 1-(2-(benzo[d]thiazol-2-yloxy)-4-(trifluoromethyl)benzyl)-1,8-diazaspiro[4.5]decane-8-carboxylate] | > 75 | 6.00 to 7.00 | < 25 | < 6.00 | < 25 | < 6.00
